From patent US20260262643A1, “HERBICIDAL BENZOXAZINES” (FMC CORPORATION, priority 2022, published 2026)

Experiments:
ragweed [1] = test: Test C postemergence; format: in vivo, Ambrosia artemisiifolia; details: 10 days, 0 to 100 scale (0 no effect, 100 complete control)
Summary of the method: (§1)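 Seeds sown in loam soil–sand blend received a directed preemergence soil spray of test chemical in non-phytotoxic solvent with surfactant; postemergence plants (2–10 cm, one- to two-leaf stage) were sprayed with the same formulation. Greenhouse-held 10 days, then visually rated for injury versus untreated controls, 0 (no effect) to 100 (complete control).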

corn [2] = test: Test C preemergence; format: in vivo, Zea mays
Summary of the method: as §1

sedge, umbrella = test: Test D flooded paddy test; format: in vivo, Cyperus difformis; details: 250 g ai/ha, applied to paddy water, visual rating after 13 to 14 days, scale 0 to 100 (0 no effect, 100 complete control)
Summary of the method: (§2)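 Seedlings reached the 2-leaf stage, then pots were flooded to 3 cm over the soil surface. Compound was applied into the water, depth was maintained, and plants stayed in the greenhouse 13 to 14 days before visual scoring (0–100) relative to controls.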

wheat [3] = test: Test C postemergence; format: in vivo, Triticum aestivum; details: 10 days, 0 to 100 scale (0 no effect, 100 complete control)
Summary of the method: as §1

blackgrass [4] = test: Test C postemergence; format: in vivo, Alopecurus myosuroides; details: 10 days, 0 to 100 scale (0 no effect, 100 complete control)
Summary of the method: as §1

oat, wild [5] = test: Test C preemergence; format: in vivo, Avena fatua
Summary of the method: as §1

oat, wild [6] = test: Test C postemergence; format: in vivo, Avena fatua; details: 10 days, 0 to 100 scale (0 no effect, 100 complete control)
Summary of the method: as §1

pigweed, palmer [7] = test: Test C preemergence; format: in vivo, Amaranthus palmeri
Summary of the method: as §1

rice = test: Test D flooded paddy test; format: in vivo, Oryza sativa; details: 250 g ai/ha, applied to paddy water, visual rating after 13 to 14 days, scale 0 to 100 (0 no effect, 100 complete control)
Summary of the method: as §2

ryegrass, Italian [8] = test: Test C preemergence; format: in vivo, Lolium multiflorum
Summary of the method: as §1

barnyardgrass [9] = test: Test C postemergence; format: in vivo, Echinochloa crusgalli; details: 10 days, 0 to 100 scale (0 no effect, 100 complete control)
Summary of the method: as §1

corn [10] = test: Test C postemergence; format: in vivo, Zea mays; details: 10 days, 0 to 100 scale (0 no effect, 100 complete control)
Summary of the method: as §1

kochia [11] = test: Test C postemergence; format: in vivo, Bassia scoparia; details: 10 days, 0 to 100 scale (0 no effect, 100 complete control)
Summary of the method: as §1

soybean [12] = test: Test C postemergence; format: in vivo, Glycine max; details: 10 days, 0 to 100 scale (0 no effect, 100 complete control)
Summary of the method: as §1

ducksalad = test: Test D flooded paddy test; format: in vivo, Heteranthera limosa; details: 250 g ai/ha, applied to paddy water, visual rating after 13 to 14 days, scale 0 to 100 (0 no effect, 100 complete control)
Summary of the method: as §2

wheat [13] = test: Test C preemergence; format: in vivo, Triticum aestivum
Summary of the method: as §1

barnyardgrass [14] = test: Test C preemergence; format: in vivo, Echinochloa crusgalli
Summary of the method: as §1

barnyardgrass [15] = test: Test D flooded paddy test; format: in vivo, Echinochloa crus-galli; details: 250 g ai/ha, applied to paddy water, visual rating after 13 to 14 days, scale 0 to 100 (0 no effect, 100 complete control)
Summary of the method: as §2

galium = test: Test C postemergence; format: in vivo, Galium aparine; details: 10 days, 0 to 100 scale (0 no effect, 100 complete control)
Summary of the method: as §1

green foxtail [16] = test: Test C postemergence; format: in vivo, Setaria viridis; details: 10 days, 0 to 100 scale (0 no effect, 100 complete control)
Summary of the method: as §1

horseweed = test: Test C postemergence; format: in vivo, Erigeron canadensis; details: 10 days, 0 to 100 scale (0 no effect, 100 complete control)
Summary of the method: as §1

soybean [17] = test: Test C preemergence; format: in vivo, Glycine max
Summary of the method: as §1

green foxtail [18] = test: Test C preemergence; format: in vivo, Setaria viridis
Summary of the method: as §1

blackgrass [19] = test: Test C preemergence; format: in vivo, Alopecurus myosuroides
Summary of the method: as §1

ryegrass, Italian [20] = test: Test C postemergence; format: in vivo, Lolium multiflorum; details: 10 days, 0 to 100 scale (0 no effect, 100 complete control)
Summary of the method: as §1

ragweed [21] = test: Test C preemergence; format: in vivo, Ambrosia artemisiifolia
Summary of the method: as §1

kochia [22] = test: Test C preemergence; format: in vivo, Bassia scoparia
Summary of the method: as §1

pigweed, palmer [23] = test: Test C postemergence; format: in vivo, Amaranthus palmeri; details: 10 days, 0 to 100 scale (0 no effect, 100 complete control)
Summary of the method: as §1

[24] = 500 g ai/ha, preemergence, 0 to 100 scale (0 no effect, 100 complete control)
[25] = Preemergence, 125 g ai/ha, 0 to 100 scale, 0 no effect, 100 complete control

## C[C@H]1CN(C(=O)c2cccc(-n3cnc(C4CC4)n3)c2)c2cccc(Cl)c2O1 [Compound 325]
Ragweed [1]; 500 g ai/ha, postemergence
  Plant response rating, Ragweed: 70
Ragweed [1]; Postemergence, 125 g ai/ha
  Plant response rating, Ragweed: 50
Corn [2]; [24]
  Corn plant response rating: 10
Corn [2]; [25]
  Plant response rating, Corn: 10
sedge, umbrella
  Plant response rating, Sedge, Umbrella (Flood): 75
Wheat [3]; 500 g ai/ha, postemergence
  Plant response rating, Wheat: 60
Wheat [3]; Postemergence, 125 g ai/ha
  Plant response rating, Wheat: 20
Blackgrass [4]; 500 g ai/ha, postemergence
  Plant response rating, Blackgrass: 70
Blackgrass [4]; Postemergence, 125 g ai/ha
  Plant response rating, Blackgrass: 10
oat, wild [5]; [24]
  Oat, Wild plant response rating: 90
oat, wild [5]; [25]
  Plant response rating, Oat, Wild: 60
oat, wild [6]; 500 g ai/ha, postemergence
  Plant response rating, Oat, Wild: 70
oat, wild [6]; Postemergence, 125 g ai/ha
  Plant response rating, Oat, Wild: 10
pigweed, palmer [7]; [24]
  Pigweed, Palmer plant response rating: 100
pigweed, palmer [7]; [25]
  Plant response rating, Pigweed, Palmer: 100
rice
  Plant response rating, Rice (Flood): 0
ryegrass, Italian [8]; [24]
  Ryegrass, Italian plant response rating: 90
ryegrass, Italian [8]; [25]
  Plant response rating, Ryegrass, Italian: 60
Barnyardgrass [9]; 500 g ai/ha, postemergence
  Plant response rating, Barnyardgrass: 80
Barnyardgrass [9]; Postemergence, 125 g ai/ha
  Plant response rating, Barnyardgrass: 40
Corn [10]; 500 g ai/ha, postemergence
  Plant response rating, Corn: 50
Corn [10]; Postemergence, 125 g ai/ha
  Plant response rating, Corn: 30
Kochia [11]; 500 g ai/ha, postemergence
  Plant response rating, Kochia: 90
Kochia [11]; Postemergence, 125 g ai/ha
  Plant response rating, Kochia: 90
Soybean [12]; 500 g ai/ha, postemergence
  Plant response rating, Soybean: 100
Soybean [12]; Postemergence, 125 g ai/ha
  Plant response rating, Soybean: 100
ducksalad
  Plant response rating, Ducksalad (Flood): 35
Wheat [13]; [24]
  Wheat plant response rating: 30
Wheat [13]; [25]
  Plant response rating, Wheat: 10
Barnyardgrass [14]; [24]
  Barnyardgrass plant response rating: 100
Barnyardgrass [14]; [25]
  Plant response rating, Barnyardgrass: 40
Barnyardgrass [15]
  Plant response rating, Barnyardgrass (Flood): 0
galium; 500 g ai/ha, postemergence
  Plant response rating, Galium: 100
galium; Postemergence, 125 g ai/ha
  Plant response rating, Galium: 100
Green foxtail [16]; 500 g ai/ha, postemergence
  Plant response rating, Foxtail, Green: 90
Green foxtail [16]; Postemergence, 125 g ai/ha
  Plant response rating, Foxtail, Green: 60
horseweed; 500 g ai/ha, postemergence
  Plant response rating, Horseweed: 60
horseweed; Postemergence, 125 g ai/ha
  Plant response rating, Horseweed: 0
Soybean [17]; [24]
  Soybean plant response rating: 40
Soybean [17]; [25]
  Plant response rating, Soybean: 40
Green foxtail [18]; [24]
  Foxtail, Green plant response rating: 100
Green foxtail [18]; [25]
  Plant response rating, Foxtail, Green: 100
Blackgrass [19]; [24]
  Blackgrass plant response rating: 80
Blackgrass [19]; [25]
  Plant response rating, Blackgrass: 60
ryegrass, Italian [20]; 500 g ai/ha, postemergence
  Plant response rating, Ryegrass, Italian: 80
ryegrass, Italian [20]; Postemergence, 125 g ai/ha
  Plant response rating, Ryegrass, Italian: 30
Ragweed [21]; [24]
  Ragweed plant response rating: 70
Ragweed [21]; [25]
  Plant response rating, Ragweed: 20
Kochia [22]; [24]
  Kochia plant response rating: 90
Kochia [22]; [25]
  Plant response rating, Kochia: 40
pigweed, palmer [23]; 500 g ai/ha, postemergence
  Plant response rating, Pigweed, Palmer: 100
pigweed, palmer [23]; Postemergence, 125 g ai/ha
  Plant response rating, Pigweed, Palmer: 90
